# Assays:
# [1] = system: endogenous Myosin light chain-2 (Myl2) expression in C2C12 cells; assay: Myl2 expression in C2C12 cells, RT-PCR normalized to GAPDH; format: cell-based; conditions: for Myl2 Relative expression/Gapdh at 2.5 μM: C2C12 cells, relative to GAPDH house-keeping control gene
# Description: Bioactivity data of AMBMP analogs 1-6, 17, 18, and 25. Dose dependent effect of AMBMP analogs 1-6, 17, 18, and 25 on endogenous Myosin light chain-2 (Myl2) expression in C2C12 cells is shown in FIG. 16 A.
# Effect of 2.5 μM AMBMP analog 1-6, 8, 17, 21, 25, 38, 39, and 40 on Myl2 expression relative to GAPDH (house-keeping control gene) in C2C12 cells is shown in Table 1. Myl2 is a marker of CaMKIIβ activity.
# AMBMP analog 40 was tested in C2C12 myogenic cells for its ability to induce expression of Myl2. C2C12 cells were treated with AMBMP or AMBMP analog 40 for 48 hrs (concentrations are indicated on the graph); DMSO was used as a negative control. Expression of Myl2 was assessed by RT-PCR and normalized to GAPDH as a house-keeping control gene.
# CaMKIIβ [2] = molecular target: T1, CaMKIIβ (Mus musculus, UniProt P28652); assay: CaMKIIβ activation in mouse skeletal muscles after injection, western blot with anti-phospho CaMKIIβ antibody; format: in vivo; conditions: mice, 10 mg/kg intraperitoneally; muscles collected 2, 4 and 6 hrs after injection; DMSO control
# T1 construct: from tissue; host or cells: tissue of treated C3KO and WT mice
# Description: Mice were injected intraperitoneally with 10 mg/kg of AMBMP analog 3. Skeletal muscles were collected at 2, 4 and 6 hrs after injection. Mice injected with DMSO were used as a control group.
# [3] = log P (partition coefficient between organic and aqueous phase); format: physicochemical
# Description: It has been determined that compounds having a chemical structure of Formula I and/or Formula VII, or a pharmaceutically acceptable salt or solvate thereof, can increase muscle mass and muscle function. These chemicals can be effective in treating muscular dystrophy, such as limb girdle muscular dystrophy type 2A/R1/D1. Not to be bound by theory, it is believed that these compounds may provide their biological effect by over-riding the CAMKII signaling block by activating CaMKII. Accordingly, these can increase muscle size, mitochondrial complex I and II activity, expression of genes that comprise the slow fiber phenotype and running performance. Embodiments of the current disclosure is directed to compositions and methods of use for compounds having a chemical structure of Formula I and/or Formula VII, or a pharmaceutically acceptable salt or solvate thereof, that show similar or higher activity on CAMKII signaling as of AMBMP, but are less toxic and/or more soluble than AMBMP (Formula VI). […] One or more compounds having a chemical structure of Formula I and/or Formula VII, can have a EC50 potency of <1 uM on endogenous myosin light chain 2 (Myl2) promoter in C2C12 cells. The compounds can have a solubility >10 uM in water at standard temperature and pressure. […] Toxicity can be measured as a dose dependent effect of the compounds on cell death of C2C12 cells.
# Capn3−/− muscles = assay: Percent slow myosin heavy chain positive fibers in soleus of calpainopathy mice; format: in vivo; conditions: daily for 2 wks at 30 mg/kg subQ
# C2C12 myogenic cells = assay: Tolerance of C2C12 myogenic cells to compound; format: cell-based; conditions: data not shown
# C3KO mice [4] = assay: Exercise performance after endurance training in C3KO mice; format: in vivo; conditions: i.p. 7.5 mg/kg/day for 14 days, 3-week endurance training
# Description: Shown in FIG. 13, AMBMP treatment leads to improved exercise performance. Mice were subjected to endurance training over a 3-week period while being treated. Exercise performance was compared between pre and post exercise condition. Wild type (WT) mice were not treated with AMBMP.
# CaMKIIβ [5] = molecular target: T1, CaMKIIβ; assay: CaMKIIβ activity in mice treated for 2 weeks; format: in vivo; conditions: i.p. 7.5 mg/kg/day for 2 weeks
# Description: (§1) Shown in FIG. 14, C3KO mice treated with AMBMP have normalized CaMKIIβ activity, but AKT or AMPK signaling are not affected.
# AKT = AKT signaling in treated C3KO mice; format: in vivo; conditions: i.p. 7.5 mg/kg/day for 2 weeks
# Description: as §1
# AMPK = AMPK signaling in treated C3KO mice; format: in vivo; conditions: i.p. 7.5 mg/kg/day for 2 weeks
# Description: as §1
# C3KO mice [6] = assay: Muscle fiber cross-sectional area in treated C3KO mice; format: in vivo; conditions: 7.5 mg/kg/day for 14 days, i.p. or subQ injection
# Description: (§2) Average cross-sectional area (CSA) measured in muscle cross sections after staining for fiber type. […] A) C3KO mice i.p. injected with AMBMP hydrochloride (7.5 mg/kg/day) for 14 days. B) C3KO mice treated AMBMP hydrochloride (7.5 mg/kg/day) for 14 days by subcutaneous (subQ) injection.
# C3KO mice [7] = assay: Mitochondrial function / mitochondrial content (NADH staining) in muscles of treated C3KO mice; format: in vivo
# Description: as §2
# One set of C3KO mice were i.p. injected with AMBMP hydrochloride (7.5 mg/kg/day) for 14 days, another set of C3KO mice were i.p. injected with AMBMP hydrochloride (15 mg/kg/day) for 14 days and a control set of C3KO mice were not treated with AMBMP. Percent of total fibers with high mitochondrial content and intermediate mitochondrial content increased with AMBMP treatment in a dose dependent manner, and percent of total fibers with low mitochondrial content decreased with AMBMP treatment in a dose dependent manner (FIG. 12A). […] Quantification of NADH staining on plantaris muscles from AMBMP-treated mice (either 7.5 or 15 mg/kg, for 2 weeks (wks)) shown as a ratio of FOG:FG fibers. *p<0.05.
# T1 sequence (P28652 whole entry): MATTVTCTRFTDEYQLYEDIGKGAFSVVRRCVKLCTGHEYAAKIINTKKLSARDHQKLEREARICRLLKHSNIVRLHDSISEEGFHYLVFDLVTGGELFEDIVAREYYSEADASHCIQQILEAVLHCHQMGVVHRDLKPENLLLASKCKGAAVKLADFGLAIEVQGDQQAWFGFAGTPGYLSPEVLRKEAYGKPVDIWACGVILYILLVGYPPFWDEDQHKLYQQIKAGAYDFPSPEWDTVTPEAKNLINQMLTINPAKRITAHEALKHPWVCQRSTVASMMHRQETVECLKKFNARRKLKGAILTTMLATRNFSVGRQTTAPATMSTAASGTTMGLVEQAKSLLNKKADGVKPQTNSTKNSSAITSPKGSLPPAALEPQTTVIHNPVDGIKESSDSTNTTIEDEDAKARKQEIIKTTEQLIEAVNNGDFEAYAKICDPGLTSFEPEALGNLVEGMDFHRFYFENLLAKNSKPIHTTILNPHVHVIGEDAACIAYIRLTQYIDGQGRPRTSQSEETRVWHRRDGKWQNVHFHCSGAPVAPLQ
smiles,measurement,setting,value
CCCOc1cccc(-c2cc(NCc3ccc4c(c3)OCO4)nc(N)n2)c1 [AMBMP Analog 5],Myl2 Relative expression/Gapdh at 2.5 μM,[1],0.6
"Nc1nc(NCc2ccc3c(c2)OCO3)cc(-c2cccc(O)c2)n1 [AMBMP Analog 3, 3-(2-amino-6-((benzo[d][1,3]dioxol-5-ylmethyl)amino)pyrimidin-4-yl)phenol]",phospho-CaMKIIβ (P-CaMK) in skeletal muscles,CaMKIIβ [2],CaMKIIβ activation
same,logP,[3],2.47
same,Myl2 Relative expression/Gapdh at 2.5 μM,[1],0.4
CC(C)(C)Oc1cccc(-c2cc(NCc3ccc4c(c3)OCO4)nc(N)n2)c1 [AMBMP Analog 6],Myl2 Relative expression/Gapdh at 2.5 μM,[1],1.2
COc1cccc(-c2cc(NCc3ccc4c(c3)OCO4)nc(N)n2)c1 [AMBMP],% slow myosin heavy chain positive fibers in soleus,Capn3−/− muscles,Statistically significant shift
same,Myl2 Relative expression/Gapdh at 2.5 μM,[1],1.4
Nc1nc(NCc2ccc3c(c2)OCO3)cc(-c2ccc(OC(F)(F)F)cc2)n1 [AMBMP Analog 17],Myl2 Relative expression/Gapdh at 2.5 μM,[1],0.2
"COc1cc(O)cc(-c2cc(NCc3ccc4c(c3)OCO4)nc(N)n2)c1 [AMBMP Analog 40, 3-(2-amino-6-((benzo[d][1,3]dioxol-5-ylmethyl)amino)pyrimidin-4-yl)-5-methoxyphenol]",tolerance by the cells compared to AMBMP,C2C12 myogenic cells,better tolerated
same,Myl2 Relative expression/Gapdh at 2.5 μM,[1],1.2
same,increase of Myl2 expression,"[1]; C2C12 myogenic cells treated 48 hrs (1.25 μM, 5 μM), RT-PCR normalized to GAPDH, DMSO negative control",2.5-2.9 fold
CCOc1cccc(-c2cc(NCc3ccc4c(c3)OCO4)nc(N)n2)c1 [AMBMP Analog 4],Myl2 Relative expression/Gapdh at 2.5 μM,[1],2
COc1cccc(-c2cc(NCc3ccc4c(c3)OCO4)nc(N)n2)c1.Cl [AMBMP hydrochloride],exercise performance pre vs post endurance training,C3KO mice [4],show a training effect
same,CaMKIIβ activity over untreated control,CaMKIIβ [5]; C3KO mice,increased CaMKIIβ activity
same,CaMKIIβ activity over untreated control,CaMKIIβ [5]; WT mice,increased CaMKIIβ activity
same,AKT signaling,AKT,without impacting
same,AMPK signaling,AMPK,without impacting
same,cross-sectional area of slow fibers,C3KO mice [6],significantly increased
same,"cross-sectional area, both fiber types",C3KO mice [6],increase
same,mitochondrial function compared to control,C3KO mice [7]; i.p. 7.5 mg/kg/day for 14 days,improved mitochondrial function
same,mitochondrial content,"C3KO mice [7]; i.p. 7.5 or 15 mg/kg/day for 14 days, plantaris muscles",increased mitochondrial content in a dose dependent manner

# From patent US12441716B2, “Compositions and methods for increasing muscle mass and oxidative metabolism” (The Regents of the University of California, priority 2019, dated 2025)
